From publication PMC5983544, “Muscarinic M5 receptors modulate ethanol seeking in rats” (Neuropsychopharmacology, 2018)

Assays:
[1] = test system: ethanol-preferring (iP) rats; test: Ethanol self-administration after bilateral microinjection into dorsolateral (DL) striatum; format: in vivo, rat; details: intra-DL striatum
From the text: (§1) Male iP rats (n = 14) were trained to self-administer 10% (v/v) ethanol via lever presses under FR3 operant conditions for approximately 12 weeks, in the presence of a 1-s light conditioned stimulus (CS+) occurring when the ethanol solution was delivered and an olfactory cue (S+ cue; one drop of vanilla essence, placed directly below the ethanol-paired (active) lever), as previously described, followed by surgery and testing. […] Rats were then given 7 days of ethanol self-administration before receiving the alternate treatment in a counterbalanced manner. For full details refer to Supplementary material.
(§2) Microinjections were performed as previously described; for full details see Supplementary material.

[2] = test system: ethanol-preferring (iP) rats; test: Ethanol self-administration after bilateral microinjection into dorsomedial (DM) striatum; format: in vivo, rat; details: intra-DM striatum
From the text: as §1, §2
There was a main effect of lever (F(1, 15) = 59.4, P < 0.0001) but no effect of treatment (F(1, 15) = 0.22, P = 0.65) (Fig. 5b).

SMILES | ethanol responding vs vehicle ([1]; 5.53 nmol/side, P = 0.0003) | responding for water vs vehicle ([1]; 5.53 nmol/side, P = 0.96) | ethanol responding vs vehicle ([2]; 5.53 nmol/hemisphere) | responding for ethanol vs vehicle ([1]; 165 pmol/hemisphere, P = 0.82) | responding for ethanol vs vehicle ([2]; 165 pmol/hemisphere, P = 0.99)
c1cnc2cc3c(cc2n1)[C@@H]1CNC[C@H]3C1 [varenicline] | significantly reduced ethanol responding | no difference | did not affect ethanol responding | – | –
CCN(Cc1ccccc1C(F)(F)F)C(=O)C1CCN(S(=O)(=O)c2ccc3[nH]ncc3c2)CC1 [ML380, 1-((1H-indazol-5-yl)sulfoneyl)-N-ethyl-N-(2-(trifluoromethyl)benzyl)piperidine-4-carboxamide] | – | – | – | no effect | no effect
